Experimental findings from US7794929B2, “Genomic screen for epigenetically silenced genes associated with cancer” (The Johns Hopkins University School of Medicine, priority 2002, dated 2010) are described below.

One assay concerns CRC cell lines. Kind of assay: RT-PCR expression analysis of methylation silenced genes in CRC cell lines after DAC treatment. The class given is cell-based, human.
Another assay relates to RKO cells. Kind of assay: Subtraction microarray and semi-quantitative RT-PCR of gene expression after DAC and/or TSA treatment. The settings on record: for expression of Group 2 genes (n=23) / expression of Group 1 genes (n=51): RKO cells, semi-quantitative RT-PCR; for expression of Group 2 genes (n=23): DAC alone or TSA alone; for expression of Group 1 genes (n=51): low dose DAC alone, TSA alone or combined. The class given is cell-based, human. As for the experimental part:
RKO cells were treated with 5-aza-2′-deoxycytidine (DAC; Sigma) and/or trichostatin A (TSA; Wako) as described (Cameron et al., supra, 1999). Briefly, the treatment consisted of DAC (200 nM) for 48 hr, with drug and medium replaced at the 24 hr time point after beginning of treatment, followed by addition of TSA to a final concentration of 300 nM (from a 1.5 mM ethanol dissolved stock) and incubation for an additional 24 hr. Cells also were treated with DAC alone or TSA alone, or mock treated, using the same volumes of PBS and/or ethanol, and/or same amount of the drugs. Some colorectal cancer (CRC) cell lines also were treated for RT-PCR analysis to assess more robust levels of gene expression; treatment was with 5 μM DAC for 72 hr, with drug and medium being replaced every 24 hr. Total RNA was extracted using the TRIZOL Reagent (Gibco/BRL), and used for microarray analysis, cDNA subtraction and RT-PCR. Prior to cDNA subtraction, poly A RNA was isolated from total RNA using the MESSAGE MAKER Reagent Assembly kit (Gibco/BRL). cDNA subtraction was performed with the combination treated RKO cell line as the tester, and mock treated cells as the driver by using the PCR-Select™ cDNA subtraction kit (Clontech). Synthesized cDNA was digested with Rsa I, and tester cDNA was ligated to adaptors included in the kit. After hybridization, PCR amplification of the subtracted cDNA was performed using the ADVANTAGE cDNA PCR kit (Clontech). Microarray analysis was performed using the Mammalian GeneFilters Microarrays™ system (Research Genetics). Filters were generated for approximately 5,000 of the genes analyzed in the Johns Hopkins Comprehensive microarray core, and filters for an additional 5,000 genes were purchased (Human GeneFilters Microarrays™ Release II; Research Genetics). A total of 10,814 genes and ESTs were analyzed. Hybridization of the filters was performed according to manufacturer's recommendation. Briefly, 5 μg of total RNA was reverse transcribed and labeled using oligo (dT)12-18 primer and ^32dCTP with SUPERSCRIPT II reverse transcriptase (Gibco/BRL). Hybridization of the filters was allowed to proceed for 12 to 18 hr. Data was analyzed using the PSCAN program (National Institutes of Health). For subtraction-microarray analysis, the 2nd PCR product from cDNA subtraction was labeled with ^33P using the MULTIPRIME DNA labeling system (Amersham). Hybridization and data analysis were performed as described above. Microarray analysis was repeated independently at least three times for each condition, and results for probing the arrays with cDNA for total RNA from mock treated cells were compared to those for hybridizations with subtraction PCR products. DNase I (Ambion) treated total RNA (2 μg) was reverse transcribed for single stranded cDNA using oligo (dT)12-18 primer with SUPERSCRIPT II reverse transcriptase (Gibco/BRL). PCR reactions were performed in a volume of 50 μl containing 1×PCR buffer (Gibco/BRL), 1.5 mM of MgCl2, 0.3 mM of dNTP, 0.25 μM of each primer and 2 U of Taq polymerase (Gibco/BRL). One hundred ng of cDNA was used for PCR amplification, and all of the genes were amplified with multiple cycle numbers (20 to 35 cycles) to determine appropriate conditions to obtain semi-quantitative differences in their expression levels. GAPDH PCR (25 and 28 cycles) was performed to ensure cDNA quality and loading accuracy. Amplification primer pairs were as shown in Table 4 (SEQ ID NOS: 149 to 296.

The mark [1] stands for this setting: colorectal cancer cells and/or gastric cancer cells.

Experimental for CRC cell lines: Briefly, the treatment consisted of DAC (200 nM) for 48 hr, with drug and medium replaced at the 24 hr time point after beginning of treatment, followed by addition of TSA to a final concentration of 300 nM (from a 1.5 mM ethanol dissolved stock) and incubation for an additional 24 hr. Cells also were treated with DAC alone or TSA alone, or mock treated, using the same volumes of PBS and/or ethanol, and/or same amount of the drugs. Some colorectal cancer (CRC) cell lines also were treated for RT-PCR analysis to assess more robust levels of gene expression; treatment was with 5 μM DAC for 72 hr, with drug and medium being replaced every 24 hr. Total RNA was extracted using the TRIZOL Reagent (Gibco/BRL), and used for microarray analysis, cDNA subtraction and RT-PCR. DNase I (Ambion) treated total RNA (2 μg) was reverse transcribed for single stranded cDNA using oligo (dT)12-18 primer with [sequence] II reverse transcriptase (Gibco/BRL). PCR reactions were performed in a volume of 50 μl containing 1×PCR buffer (Gibco/BRL), 1.5 mM of MgCl2, 0.3 mM of dNTP, 0.25 μM of each primer and 2 U of Taq polymerase (Gibco/BRL). One hundred ng of cDNA was used for PCR amplification, and all of the genes were amplified with multiple cycle numbers (20 to 35 cycles) to determine appropriate conditions to obtain semi-quantitative differences in their expression levels. GAPDH PCR (25 and 28 cycles) was performed to ensure cDNA quality and loading accuracy. […] For RT-PCR, SFRP2 sense and antisense primers were designed for exons 2 and 3, respectively; SFRP4 sense and antisense primers were designed for exons 2 and 5, respectively; and SFRP5 sense and antisense primers were designed for exons 2 and 3, respectively.

On to `Nc1ncn([C@H]2C[C@H](O)[C@@H](CO)O2)c(=O)n1` [DAC, 5-aza-2′-deoxycytidine], for which the “expression of FOLH1 and PCDH8 (silent genes)” value with CRC cell lines (CRC cell lines) is “re-expression”. In the assay on CRC cell lines (CRC cell lines, DAC treatment), the “basal expression of the hypermethylated SFRP genes (the three other than SFRP1)” value was “restored”. The “KIAA0786 expression (not basally expressed despite a lack of methylation)” value in the assay on CRC cell lines (SW480 cells) is “reactivated”. Moreover, the “expression of Group 1a genes lacking basal expression in the methylated cell lines” value in the assay with CRC cell lines (series of 8 CRC cell lines, incubation with DAC) is given as “restored”. In the assay with RKO cells, the “expression of Group 2 genes (n=23)” value is on record as “variable initial expression or response” and the “expression of Group 1 genes (n=51)” value is recorded as “minimal increase in expression”. Also, in the assay with RKO cells (setting [1]), the “basal level of expression of HOXA1, GRO3 and DLX7” value is on record as “increased”; the “expression of POR1, MBNL, TRADD, PDIP, RAD23B, RPL13, GNAI2, PPP1R21A, FPGT and TRIM32” value is “vary among genes”; the “expression of PTGS2, CDKN2A, TIMP3, S100A10, SFRP1, CXX1, SEZZ6L, KIAA0786, TIMP2, PCDH8, FOLH1 and SNRPN (no detectable basal expression)” value was “re-expressed”.

As to `CC(/C=C/C(=O)NO)=C\[C@@H](C)C(=O)c1ccc(N(C)C)cc1` [TSA, trichostatin A], in the assay on RKO cells, the “expression of Group 2 genes (n=23)” value is given as “up-regulation” and the “expression of Group 1 genes (n=51)” value is given as “no change in expression”. In the assay on RKO cells (setting [1]), the “basal level of expression of HOXA1, GRO3 and DLX7” value is recorded as “not”; the “expression of POR1, MBNL, TRADD, PDIP, RAD23B, RPL13, GNAI2, PPP1R21A, FPGT and TRIM32” value was “up-regulated”.
